These results are taken from patent US20240261274A1, “TREATMENT OF MYC-DRIVEN CANCERS WITH GSPT1 DEGRADERS” (MONTE ROSA THERAPEUTICS, INC., priority 2021, published 2024).

In experiment [1] the target is GSPT1 (Homo sapiens, UniProt P15170+Q96SW2). As to the kind of experiment: GSPT1 degradation immunofluorescence assay in CAL-51 cells. The format is cell-based. Details: endogenous in cells; host or cells: CAL-51 (DSMZ ACC302). Particulars: 6 hours. As for the experimental part: CAL-51 cells were purchased from DSMZ (cat. Number ACC302), sub-cultured in 90% Dulbecco's MEM (4.5 g/L glucose, Gibco 11965)+10% heat inactivated FBS (BioConcept, 2-01F1361) and incubated at 37° C., 5% CO2. For the assay, imaging microtiterplate Cell Carrier 96 Ultra (Perkin Elmer 6055302) were pre-coated with Fibronectin (Sigma F085, 30 μl at 0.2 μg/ml) in PBS (100 μl, Gibco 14190) for 45 min at room temperature, rinsed with PBS and CAL-51 cells (30K cells/well) were plated and let to adhere overnight. Cells were treated with compounds typically using a serial dilution ranging from 30 μM to 0.1 nM for 6 hours. Compounds were stored at 10 mM DMSO stocks. Vehicle (DMSO), positive (CC-885, 10 μM) and rescue controls (positive control plus 0.2 μM bortezomib) were also included at this stage. Cells were subsequently rinsed with PBS and fixed in 10% Formalin solution (50 μl, Sigma HT5011)) for 20 mins at room temperature. Following three consecutive PBS washes (100 μl), cells were permeabilized in 0.1% Triton X-100 in PBS (Sigma 93443, 50 μl) for 15 mins at room temperature. Following three further PBS washes, 50 μl blocking buffer (1% BSA, Sigma A4503, in PBS) was added for 45 min for signal-to-noise reduction. Primary antibody (human GSPT1, Sigma HPA052488) was diluted in blocking buffer (dil. 1/300, 35 μl/well) and incubated with the cells overnight at 4° C. After three PBS washes, Alexa-fluor 488 coupled secondary antibodies (Invitrogen, A32731, dil. 1/1000), Alexa-fluor 647-Phalloidin (Invitrogen, A22287, dil. 1/200) and DAPI (Thermo, #62248, dil. 1/1000) were diluted in blocking buffer and incubated with the samples for 2 hours at room temperature. After three final PBS washes, samples were conserved in 100 μl PBS in the dark, until measurement. Image acquisition was performed on the Operetta High-Content Imager (Perkin-Elmer). Fluorescence intensity of Alexa-Fluor 488 (GSPT1), Alexa-Fluor 647 (Actin) and DAPI (Nucleus) were measured. For the determination of GSPT1 DC50 values, a custom algorithm implemented in the PerkinElmer image analysis software Harmony-Acapella® was developed. After user-defined setting of adjustment parameters, the analysis was run identically without human intervention for all image fields. DAPI staining of the nuclei was used to determine the location of cells using standard nuclei detection modules. Segmentation artifacts were removed by threshold-based filters for area, roundness and intensity. The outline of the cells was determined analogously from the sum of the normalized, smoothed DAPI and Actin channel, starting from each nucleus. The Alexa-Fluor 488 (GSPT1) signal intensity in each cell was finally measured, in order to obtain a Mean intensity per cell. GSPT1 degradation (DC50) was calculated after normalization to controls and data import in CDD vault Database, using non-linear regression.

The target of experiment [2] is T1, Full length wild-type cereblon CRBN (Homo sapiens, UniProt Q96SW2).
T1 construct: Full length wild-type cereblon CRBN (80.0 nM, 10 μL) was incubated in assay buffer
Put plainly: Fluorescence polarization (FP) assay indicating cereblon binding. As for the experimental part:
Compound activity was monitored in a fluorescence polarization (FP) homogeneous assay using 1-[5-({2-[2-(2-{[2-(2,6-dioxopiperidin-3-yl)-1,3-dioxo-2,3-dihydro-1H-isoindol-4-yl]oxy}acetamido)ethoxy]ethyl}carbamoyl)pentyl]-3,3-dimethyl-2-[(1E,3E)-5-[(2E)-1,3,3-trimethyl-5-sulfo-2,3-dihydro-1H-indol-2-ylidene]penta-1,3-dien-1-yl]-3H-indol-1-ium-5-sulfonate as a fluorescent probe. Unless otherwise stated, all reagents were purchased from Sigma Aldrich. Enzymatic reactions were conducted in Perkin-Elmer Black 384 well ProxiPlate Plus (catalogue no. 6008269) in 10 μL total volume. Full length wild-type cereblon CRBN (80.0 nM, 10 μL) was incubated in assay buffer containing 20 mM HEPES (pH 8.0), […], 0.5 mM TCEP and 0.05% Tween 20 in the presence or absence of compound (300 nL). Inhibitors were stored as 10 mM DMSO stocks in an inert environment (low humidity, dark, low oxygen, room temperature) using the Storage Pod System. Compounds and DMSO were dispensed using the Echo E5XX (Labcyte Inc. USA) to give concentrations from 300 to 0.937 or 3000 to 9.3 nM in a 12 data point curve. […] Following incubation at room temperature for 30 min, the assay was initiated by dispensing the probe to a final concentration of 5 nM (2.5 nL of a 20 μM stock) using the Echo E5XX. FP was measured after a period of 12 hours using a Pherastar plate reader (BMG Labtech, Germany) exciting at 590 nm and measuring the amount of parallel and perpendicular light at 675 nm. The FP signal was subsequently normalized to the no-compound control (i.e., DMSO). Analysis and IC50 values were derived using Dotmatics (Dotmatics UK) software.

The mark [3] stands for this setting: Table 5B, read-out: Activity for GSPT1 degradation, Code (DC50).
The mark [4] stands for this setting: Table 4, read-out: Activity for GSPT1 degradation, Code (DC50).
Where [5] appears, read: bound stated, read-out: IC50 value.

SMILES strings stand for the structures. pIC50: −log10 of the molar value. Like-named read-outs stand apart in the source and are kept apart here.

GSPT1, sequence (P15170 whole entry): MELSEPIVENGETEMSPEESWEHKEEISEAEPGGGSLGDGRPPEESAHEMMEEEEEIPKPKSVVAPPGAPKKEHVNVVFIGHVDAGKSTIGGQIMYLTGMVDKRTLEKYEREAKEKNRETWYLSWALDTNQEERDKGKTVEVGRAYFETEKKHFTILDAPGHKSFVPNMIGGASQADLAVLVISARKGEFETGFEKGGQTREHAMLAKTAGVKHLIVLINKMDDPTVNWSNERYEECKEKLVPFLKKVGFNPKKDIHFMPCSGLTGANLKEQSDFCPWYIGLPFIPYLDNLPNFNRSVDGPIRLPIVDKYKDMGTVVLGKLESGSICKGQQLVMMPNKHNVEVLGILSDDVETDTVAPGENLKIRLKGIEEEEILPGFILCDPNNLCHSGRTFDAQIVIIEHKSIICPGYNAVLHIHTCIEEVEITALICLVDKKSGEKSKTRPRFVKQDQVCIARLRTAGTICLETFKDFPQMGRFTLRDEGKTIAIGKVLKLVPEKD
GSPT1, sequence (Q96SW2 whole entry): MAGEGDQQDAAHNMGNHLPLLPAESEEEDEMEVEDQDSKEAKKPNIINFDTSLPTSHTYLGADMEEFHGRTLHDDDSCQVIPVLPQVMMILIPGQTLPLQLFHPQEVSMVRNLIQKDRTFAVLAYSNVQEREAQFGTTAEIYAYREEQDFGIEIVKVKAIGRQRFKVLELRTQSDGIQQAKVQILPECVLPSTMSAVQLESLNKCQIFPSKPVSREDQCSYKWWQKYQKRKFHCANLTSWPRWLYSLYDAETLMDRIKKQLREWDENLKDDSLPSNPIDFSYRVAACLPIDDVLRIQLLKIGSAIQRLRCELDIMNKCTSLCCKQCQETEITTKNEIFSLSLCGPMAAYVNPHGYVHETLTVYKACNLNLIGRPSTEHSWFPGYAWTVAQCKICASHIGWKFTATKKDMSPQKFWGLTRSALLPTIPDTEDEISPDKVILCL
GSPT1, sequence (Q16531 whole entry partner): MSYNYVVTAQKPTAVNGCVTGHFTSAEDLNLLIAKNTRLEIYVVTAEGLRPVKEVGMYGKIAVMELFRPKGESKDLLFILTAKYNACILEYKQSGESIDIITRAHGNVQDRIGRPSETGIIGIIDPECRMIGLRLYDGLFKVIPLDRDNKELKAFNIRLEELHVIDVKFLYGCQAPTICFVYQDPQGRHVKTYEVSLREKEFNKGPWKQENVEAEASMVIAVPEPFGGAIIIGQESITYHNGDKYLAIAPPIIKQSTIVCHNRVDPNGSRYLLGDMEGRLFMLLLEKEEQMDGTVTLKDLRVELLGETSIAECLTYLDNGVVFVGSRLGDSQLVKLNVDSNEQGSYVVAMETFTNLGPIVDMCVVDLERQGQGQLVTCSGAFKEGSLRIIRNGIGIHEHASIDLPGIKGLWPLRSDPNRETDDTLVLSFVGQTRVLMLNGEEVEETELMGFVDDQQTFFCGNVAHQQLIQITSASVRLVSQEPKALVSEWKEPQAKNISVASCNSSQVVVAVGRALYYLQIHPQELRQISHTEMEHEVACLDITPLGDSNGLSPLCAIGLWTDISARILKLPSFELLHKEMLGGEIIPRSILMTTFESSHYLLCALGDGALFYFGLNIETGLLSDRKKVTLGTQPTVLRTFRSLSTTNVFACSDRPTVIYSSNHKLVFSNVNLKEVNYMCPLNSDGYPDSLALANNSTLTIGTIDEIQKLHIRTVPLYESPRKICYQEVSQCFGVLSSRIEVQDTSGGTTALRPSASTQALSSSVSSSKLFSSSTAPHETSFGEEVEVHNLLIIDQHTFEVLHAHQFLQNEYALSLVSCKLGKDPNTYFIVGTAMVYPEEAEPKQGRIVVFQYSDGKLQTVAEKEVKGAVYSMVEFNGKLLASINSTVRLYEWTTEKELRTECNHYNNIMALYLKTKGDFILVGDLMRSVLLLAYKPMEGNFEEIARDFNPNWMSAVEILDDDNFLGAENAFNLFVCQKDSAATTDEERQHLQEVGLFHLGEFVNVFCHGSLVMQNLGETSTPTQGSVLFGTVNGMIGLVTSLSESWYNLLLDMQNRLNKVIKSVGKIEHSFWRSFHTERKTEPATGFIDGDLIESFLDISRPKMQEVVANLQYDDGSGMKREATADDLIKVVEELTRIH
T1 sequence (Q96SW2 whole entry): as the sequence (Q96SW2 whole entry) above

In general, DC50 refers to the concentration giving 50% degradation. What is called pIC50 is −log10 of the IC50, conventionally taken in molar units. In the case of `COc1cc(COC(=O)Nc2ccc(C3CCC3)cc2)cc2c1CN(C1CCC(=O)NC1=O)C2=O` (stereo not drawn) [Compound 557], the DC50 in experiment [1] (setting [3]) is no more than 30 nM. The pIC50 in experiment [2] (Table 3B, read-out: rFP IC50) was no less than 6.22.

`COc1cc(COC(=O)Nc2cc(OC(F)(F)F)ccc2F)cc2c1CN(C1CCC(=O)NC1=O)C2=O` (stereo not drawn) [Compound 566]: in experiment [1] (setting [3]), the DC50 was greater than 300 nM.

On to `O=C1CCC(N2Cc3c(F)cc(COC(=O)Nc4ccc(F)c(Cl)c4)cc3C2=O)C(=O)N1` (stereo not drawn) [Compound 532], for which, in experiment [1] (setting [3]), the DC50 was 30 to 300 nM. Besides, the pIC50 in experiment [2] (Table 3B, read-out: rFP IC50) was less than 5.72.

For `O=C1CCC(N2Cc3c(F)cc(COC(=O)Nc4cc(F)c(F)c(Cl)c4)cc3C2=O)C(=O)N1` (stereo not drawn) [Compound 561], the DC50 in experiment [1] (setting [3]) was no more than 30 nM. For the same compound, the negative-log IC50 (pIC50) in experiment [2] (Table 3B, read-out: rFP IC50) was less than 5.72.

Consider `CN(C)CC(=O)Oc1cccc(CNC(=O)NCc2ccc3c(c2)C(=O)N(C2CCC(=O)NC2=O)C3)c1` (stereo not drawn) [Compound 136], for which, in experiment [1] (setting [4]), the DC50 was greater than 300 nM. In experiment [2] (setting [5]), the negative logarithm of the IC50 (pIC50) was greater than 5.96.

With `O=C1CCC(N2Cc3c(F)cc(COC(=O)Nc4ccc(-c5ccccc5F)c(F)c4)cc3C2=O)C(=O)N1` (stereo not drawn) [Compound 529], the DC50 in experiment [1] (setting [3]) was no more than 30 nM. Also, the negative logarithm of the IC50 (pIC50) in experiment [2] (Table 3B, read-out: rFP IC50) is less than 5.72.

For `CC(C)(C)c1ccc(NC(=O)OCc2cc(F)c3c(c2)C(=O)N(C2CCC(=O)NC2=O)C3)cn1` (stereo not drawn) [Compound 509], in experiment [1] (setting [3]), the DC50 was no more than 30 nM. Further, the pIC50 in experiment [2] (Table 3B, read-out: rFP IC50) is 5.72 to 5.92.

As for `COc1cc(COC(=O)Nc2cc(F)cc(OC(F)F)c2)cc2c1CN(C1CCC(=O)NC1=O)C2=O` (stereo not drawn) [Compound 547], the DC50 in experiment [1] (setting [3]) was no more than 30 nM. Further, in experiment [2] (Table 3B, read-out: rFP IC50), the negative-log IC50 (pIC50) is 5.92 to 6.22.

With `COc1cc(COC(=O)Nc2ccc(N3CCC[C@@H]3C)nc2)cc2c1CN(C1CCC(=O)NC1=O)C2=O` (stereo partly drawn) [Compound 562], the DC50 in experiment [1] (setting [3]) is 30 to 300 nM. In addition, in experiment [2] (Table 3B, read-out: rFP IC50), the pIC50 was no less than 6.22.

Regarding `COc1c(COC(=O)Nc2ccc(C)c(Cl)c2)ccc2c1C(=O)N(C1CCC(=O)NC1=O)C2` (stereo not drawn) [Compound 570], the DC50 in experiment [1] (setting [3]) is greater than 300 nM. For the same compound, the pIC50 in experiment [2] (Table 3B, read-out: rFP IC50) was less than 5.72.

As for `C[C@@H]1CCCN1c1ccc(NC(=O)OCc2cc(F)c3c(c2)C(=O)N(C2CCC(=O)NC2=O)C3)cn1` (stereo partly drawn) [Compound 523], the DC50 in experiment [1] (setting [3]) was no more than 30 nM. Further, the pIC50 in experiment [2] (Table 3B, read-out: rFP IC50) was 5.92 to 6.22.

In the case of `COc1cc(COC(=O)Nc2cc(C)cc(F)c2)cc2c1CN(C1CCC(=O)NC1=O)C2=O` (stereo not drawn) [Compound 567], in experiment [1] (setting [3]), the DC50 is no more than 30 nM.

For `O=C1CCC(N2Cc3c(F)cc(COC(=O)Nc4ccc(C5CCC5)cc4)cc3C2=O)C(=O)N1` (stereo not drawn) [Compound 522], the DC50 in experiment [1] (setting [3]) was no more than 30 nM. The pIC50 in experiment [2] (Table 3B, read-out: rFP IC50) was less than 5.72.

On to `COc1cc(COC(=O)Nc2ccc(F)c(OC(F)(F)F)c2)cc2c1CN(C1CCC(=O)NC1=O)C2=O` (stereo not drawn) [Compound 539], for which the DC50 in experiment [1] (setting [3]) was no more than 30 nM. The pIC50 in experiment [2] (Table 3B, read-out: rFP IC50) is 5.72 to 5.92.

In the case of `CC1(C)COc2cc(NC(=O)OCc3cc(F)c4c(c3)C(=O)N(C3CCC(=O)NC3=O)C4)ccc21` (stereo not drawn) [Compound 517], the DC50 in experiment [1] (setting [3]) is no more than 30 nM. Besides, the pIC50 in experiment [2] (Table 3B, read-out: rFP IC50) was no less than 6.22.

Turning to `CC(C)(C)c1ccc(NC(=O)OCc2cc(F)c3c(c2)C(=O)N(C2CCC(=O)NC2=O)C3)cc1` (stereo not drawn) [Compound 510], the DC50 in experiment [1] (setting [3]) was 30 to 300 nM. Further, the pIC50 in experiment [2] (Table 3B, read-out: rFP IC50) was less than 5.72.

For `Cc1cc(NC(=O)OCc2cc(F)c3c(c2)C(=O)N(C2CCC(=O)NC2=O)C3)cnc1-c1ccccc1` (stereo not drawn) [Compound 520], the DC50 in experiment [1] (setting [3]) is no more than 30 nM. Further, in experiment [2] (Table 3B, read-out: rFP IC50), the pIC50 was 5.92 to 6.22.

As for `Cc1cc(Cl)cc(NC(=O)OCc2cc(F)c3c(c2)C(=O)N(C2CCC(=O)NC2=O)C3)c1` (stereo not drawn) [Compound 527], the DC50 in experiment [1] (setting [3]) lay in the range of 30 to 300 nM. Moreover, the pIC50 in experiment [2] (Table 3B, read-out: rFP IC50) is 5.72 to 5.92.

On to `Cc1ccc(NC(=O)OCc2ccc3c(c2C)C(=O)N(C2CCC(=O)NC2=O)C3)cc1Cl` (stereo not drawn) [Compound 573], for which the DC50 in experiment [1] (setting [3]) is greater than 300 nM. Further, in experiment [2] (Table 3B, read-out: rFP IC50), the pIC50 is no less than 6.22.

Turning to `O=C1CCC(N2Cc3c(F)cc(COC(=O)Nc4cc(F)c(-c5ccccc5)c(F)c4)cc3C2=O)C(=O)N1` (stereo not drawn) [Compound 530], in experiment [1] (setting [3]), the DC50 lay in the range of 30 to 300 nM. The pIC50 in experiment [2] (Table 3B, read-out: rFP IC50) is less than 5.72.

In the case of `Cc1c(Cl)cc(NC(=O)NCc2ccc3c(c2)C(=O)N(C2CCC(=O)NC2=O)C3)cc1CN1CC2CC1CO2` (stereo not drawn) [Compound 139], the DC50 in experiment [1] (setting [4]) is no more than 100 nM. Also, the pIC50 in experiment [2] (setting [5]) is greater than 5.96.

For `Cc1ccc(NC(=O)OCc2ccc3c(c2Cl)C(=O)N(C2CCC(=O)NC2=O)C3)cc1Cl` (stereo not drawn) [Compound 572], the DC50 in experiment [1] (setting [3]) is greater than 300 nM. The pIC50 in experiment [2] (Table 3B, read-out: rFP IC50) was less than 5.72.

`CC1COc2cc(NC(=O)OCc3ccc4c(c3)C(=O)N(C3CCC(=O)NC3=O)C4)ccc21` (stereo not drawn) [Compound 303]: in experiment [2] (setting [5]), the pIC50 is greater than 5.96.

With `O=C1CCC(N2Cc3c(F)cc(COC(=O)Nc4ccc(F)c(OC(F)(F)F)c4)cc3C2=O)C(=O)N1` (stereo not drawn) [Compound 514], the DC50 in experiment [1] (setting [3]) lay within 30 to 300 nM. In experiment [2] (Table 3B, read-out: rFP IC50), the pIC50 was less than 5.72.

For `O=C1CCC(N2Cc3c(F)cc(COC(=O)Nc4cc(F)cc(Cl)c4)cc3C2=O)C(=O)N1` (stereo not drawn) [Compound 533], in experiment [1] (setting [3]), the DC50 was 30 to 300 nM. Further, the pIC50 in experiment [2] (Table 3B, read-out: rFP IC50) was less than 5.72.

`COc1cc(COC(=O)Nc2ccc(C3(C)CC3)cc2)cc2c1CN(C1CCC(=O)NC1=O)C2=O` (stereo not drawn) [Compound 540]: in experiment [2] (Table 3B, read-out: rFP IC50), the pIC50 is no less than 6.22.
